Activity calls are given as the source filed them. No cut-off for these calls is given here.
Key:
[1] = biological target: T1, Prostaglandin E2 receptor EP3 subtype (Homo sapiens, UniProt P43115); assay: Antagonist activity at human EP3 receptor expressed in CHO cells assessed as inhibition of PGE2-induced increase in intracellular calcium concentration after 1 hr by FLIPR assay; format: functional, cell-based
T1 sequence (P43115 whole entry): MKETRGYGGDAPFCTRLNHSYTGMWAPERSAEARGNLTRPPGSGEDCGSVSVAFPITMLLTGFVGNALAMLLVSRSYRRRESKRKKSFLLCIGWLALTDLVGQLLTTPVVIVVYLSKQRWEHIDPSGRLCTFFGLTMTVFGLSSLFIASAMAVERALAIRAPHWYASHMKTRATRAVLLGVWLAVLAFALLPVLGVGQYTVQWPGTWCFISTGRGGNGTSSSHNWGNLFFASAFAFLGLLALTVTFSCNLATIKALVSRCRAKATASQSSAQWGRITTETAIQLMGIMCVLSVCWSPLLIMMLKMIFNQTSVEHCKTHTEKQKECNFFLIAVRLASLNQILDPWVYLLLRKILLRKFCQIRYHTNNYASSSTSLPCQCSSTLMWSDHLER

[2] = tested on: Rattus norvegicus; assay: Dose normalized AUC in Sprague-Dawley rat at 2 mg/kg, po; format: ADME, organism-based; parameters: dose 2 mg/kg, route oral; conditions: in vivo
[3] = Clearance in Sprague-Dawley rat at 1 mg/kg, iv and 2 mg/kg, po; format: ADME, organism-based; conditions: in vivo
[4] = Half life in Sprague-Dawley rat at 1 mg/kg, iv and 2 mg/kg, po; format: ADME, organism-based; conditions: in vivo
[5] = Oral bioavailability in Sprague-Dawley rat at 2 mg/kg; format: ADME, organism-based; conditions: in vivo
[6] = species on record: Canis lupus familiaris; assay: Antagonist activity at dog EP3 receptor; format: functional
[7] = biological target: T2, Prostaglandin E2 receptor EP3 subtype (Rattus norvegicus) (UniProt P34980); assay: Antagonist activity at rat EP3 receptor; format: functional
T2 sequence (whole entry): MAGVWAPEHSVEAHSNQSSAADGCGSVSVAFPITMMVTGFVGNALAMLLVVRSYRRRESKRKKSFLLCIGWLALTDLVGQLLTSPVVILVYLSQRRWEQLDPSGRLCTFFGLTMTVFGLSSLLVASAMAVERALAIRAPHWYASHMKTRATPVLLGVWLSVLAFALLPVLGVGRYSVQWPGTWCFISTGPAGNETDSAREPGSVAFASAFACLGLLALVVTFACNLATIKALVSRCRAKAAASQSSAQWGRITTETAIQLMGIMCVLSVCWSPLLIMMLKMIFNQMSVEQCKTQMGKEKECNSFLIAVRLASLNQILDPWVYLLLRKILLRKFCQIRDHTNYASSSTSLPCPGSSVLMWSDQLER

Compound | Ki [1] [nM] | further results
CN1C(=O)OC(C)(c2ccc(-c3ccc4ccccc4c3)[nH]c2=O)C1=O (centres undefined) | 501 | 
CC(C)C1(c2cc(C(F)(F)F)c(-c3ccc4ccccc4c3)[nH]c2=O)OC(=O)NC1=O (centres undefined) | 631 | 
CC1(c2ccc(-c3ccc4ccccc4c3)[nH]c2=O)NC(=O)NC1=O (centres undefined) | 316 | 
CC(C)C1(c2cc(-c3ccccc3)c(-c3ccc4ccccc4c3)[nH]c2=O)OC(=O)NC1=O (centres undefined) | 2510 | 
COc1cc(-c2ccc3ccccc3c2)ccc1C1(C)OC(=O)NC1=O (centres undefined) | 3160 | 
CC(C)C1(c2c[nH]c(-c3ccc4ccccc4c3)cc2=O)OC(=O)NC1=O (centres undefined) | 794 | 
Cn1c(-c2ccc3ccccc3c2)ccc(C2(C)OC(=O)NC2=O)c1=O (centres undefined) | > 25100 | 
CC(C)C1(c2ccc(-c3ccc4ccccc4c3)[nH]c2=O)OC(=O)NC1=O (centres undefined) |  | Activity [6]: Active; Activity [7]: Active
CC(C)C1(c2ccc(-c3ccc4ccccc4c3)[nH]c2=O)OC(O)=NC1=O (centres undefined) |  | AUC [2]: 4400 ng·h/mL; clearance [3]: 5.1 mL/min/kg; half-life [4]: 3.5 h; bioavailability [5]: 100%
CC(C)C1(c2ccc(-c3ccc4ccccc4c3)nc2)OC(=O)NC1=O (centres undefined) | > 25100 | 
CC1(c2ccc(-c3ccc4ccccc4c3)cc2O)OC(=O)NC1=O (centres undefined) | 1260 | 
CC(C)N1C(=O)OC(C)(c2ccc(-c3ccc4ccccc4c3)[nH]c2=O)C1=O (centres undefined) | 1580 | 

The next lines start with results.

Ki [1] [nM] | Compound | further results
15.8 | O=C1NC(=O)C(Cc2ccccc2)(c2ccc(-c3ccc4ccccc4c3)[nH]c2=O)O1 (centres undefined) | 
79.4 | CC1(c2ccc(-c3ccc4ccccc4c3)[nH]c2=O)CNC(=O)O1 (centres undefined) | 
6.31 | Cc1cc(C2(C(C)C)OC(=O)NC2=O)c(=O)[nH]c1-c1ccc2ccccc2c1 (centres undefined) | AUC [2]: 13500 ng·h/mL; clearance [3]: 1.4 mL/min/kg; half-life [4]: 6.6 h; bioavailability [5]: 100%
39.8 | CC(C)C1(c2cc(Br)c(-c3ccc4ccccc4c3)[nH]c2=O)OC(=O)NC1=O (centres undefined) | 
7.94 | CC(C)[C@@]1(c2ccc(-c3ccc4ccccc4c3)[nH]c2=O)OC(=O)NC1=O | 
7.94 | O=C1NC(=O)C(c2ccc(-c3ccc4ccccc4c3)[nH]c2=O)(C2CCCC2)O1 (centres undefined) | 
31.6 | O=C1NC(=O)C(c2ccccc2)(c2ccc(-c3ccc4ccccc4c3)[nH]c2=O)O1 (centres undefined) | 
50.1 | CC(C)C1(c2cc(Cl)c(-c3ccc4ccccc4c3)[nH]c2=O)OC(=O)NC1=O (centres undefined) | AUC [2]: 12900 ng·h/mL; clearance [3]: 1.2 mL/min/kg; half-life [4]: 5.3 h; bioavailability [5]: 86%
50.1 | O=C1NC(=O)C(c2ccc(-c3ccc4ccccc4c3)[nH]c2=O)(C2CC2)O1 (centres undefined) | 
7.94 | O=C1NC(=O)C(c2ccc(-c3ccc4ccccc4c3)[nH]c2=O)(C2CCCCC2)O1 (centres undefined) | 
20 | CC1(c2ccc(-c3ccc4ccccc4c3)[nH]c2=O)OC(=O)NC1=O (centres undefined) | 
126 | O=C1NC(=O)C(c2ccc(-c3ccc4ccccc4c3)[nH]c2=O)(C(F)(F)F)O1 (centres undefined) | 
20 | CC(C)[C@]1(c2ccc(-c3ccc4ccccc4c3)[nH]c2=O)OC(=O)NC1=O | 
200 | O=C1NC(=O)C(c2ccc(-c3ccc4ccccc4c3)[nH]c2=O)(C2CCOCC2)O1 (centres undefined) | 
39.8 | CC1(c2ccc(-c3ccc4ccccc4c3)[nH]c2=O)CNC(=O)N1 (centres undefined) | 

— ChEMBL document CHEMBL1770146, “Structure-activity relationship studies of novel 3-oxazolidinedione-6-naphthyl-2-pyridinones as potent and orally bioavailable EP3 receptor antagonists” (Bioorg Med Chem Lett, 2011)
